Results as given in patent US8536183B2, “3-pyridylcarbonyl-piperazinylsulfonyl derivatives” (Convergence Pharmaceuticals Limited, priority 2008, dated 2013).
Where a name gives a salt, the structure may show the parent alone.

The compounds below were run against T1, hCaV2.2 (Homo sapiens, UniProt Q00975) (assay: hCaV2.2 assay, IonWorks planar array electrophysiology in stably transfected HEK293 cells). Details: current elicited by the 1st depolarising pulse inhibited by 50%; HEK293 cells expressing human CaV2.2 alpha/beta3/alpha2delta1; read-out: mean pIC50 (tonic pIC50) (converted).
T1 construct: expressed in transfected cells; plasmids pCIN5-hCaV2.2, pCIH-hCaV β3, pCIP-α2δ1
Format: cell-based
Method: Compounds of the invention may be tested for in vitro biological activity in the hCaV2.2 assay in accordance with the following studies:
Stable cell lines expressing the human CaV2.2 α (als) subunit, along with the human […] and α2δ1 auxiliary subunits were created following sequential transfection and selection of human embryonic kidney (HEK293) cells. HEK293 cells were cultured in Dulbecco's modified Eagles media/F12 media (Invitrogen, Cat #041-95750V) containing 10% foetal bovine serum, with added L-glutamine (2 mM; Invitrogen, Cat #25030-024) and non-essential amino acids (5%; Invitrogen, Cat #11140-035). Initially HEK293 cells were transfected with two plasmid vectors for expression of the hCaV2.2 α subunit (pCIN5-hCaV2.2 which carries a neomycin resistance marker) and the hCaV β3 subunit (pCIH-hCaV β3 which carries a hygromycin resistance marker). Clonal cell lines were isolated following selection in media supplemented with 0.4 mg ml^−1 Geneticin G418 (Invitrogen, Cat #10131-027) and 0.1 mg ml^1 hygromycin (Invitrogen, Cat #10687-010). These clonal cell lines were assessed for Cav2.2α/β3-mediated current expression using the IonWorks planar array electrophysiology technology (described below). A clonal line was identified that gave a reasonable level of functional Cav2.2α/β3 current expression. This cell line was transfected with a plasmid vector for expression of the human […] subunit (pCIP-α2δ1 which carries a puromycin resistance marker) and clonal cell lines isolated following selection in media containing 0.62 μg ml^−1 puromycin (Sigma, Cat #P-7255), in addition to 0.4 mg ml^−1 Geneticin G418 and 0.1 mg ml^−1 hygromycin. Several cell lines were identified that gave robust levels of Cav2.2α/β3/α2δ1-mediated current expression and one of these was selected for compound profiling. Expression of all three subunits within this cell line was continuously maintained by the inclusion of G418 (0.4 mg ml^−1), hygromycin (0.1 mg ml^−1) and puromycin (0.62 μg ml^−1). Cells were maintained at 37° C. in a humidified environment containing 5% CO2 in air. Cells were liberated from the T175 culture flasks for passage and harvesting using TrpLE (Invitrogen, Cat #12604-013).
Cells were grown to 30-60% confluence in T175 flasks and maintained at 30° C. for 24 hrs prior to recording. Cells were lifted by removing the growth media, washing with Ca^2+ free PBS (Invitrogen, Cat #14190-094) and incubating with 3 ml of warmed (37° C.) TrpLE (Invitrogen, Cat #12604-013) for 6 minutes. Lifted cells were suspended in 10 ml of extracellular buffer. Cell suspension was then placed into a 15 ml tube and centrifuged for 2 minutes at 700 rpm. After centrifugation, the supernatant was removed and the cell pellet was resuspended in 4.5 ml of extracellular solution.
Currents were recorded at room temperature (21-23° C.) using the IonWorks planar array electrophysiology technology (Molecular Devices Corp.). Stimulation protocols and data acquisition were carried out using a microcomputer (Dell Pentium 4). In order to determine planar electrode hole resistances (Rp), a 10 mV, 160 ms potential difference was applied across each hole. These measurements were performed before cell addition. After cell addition a seal test was performed prior to antibiotic (amphotericin) circulation to achieve intracellular access. Leak subtraction was conducted in all experiments by applying a 160 ms hyperpolarizing (10 mV) prepulse 200 ms before the test pulses to measure leak conductance. Test pulses stepping from the holding potential (VH) of −90 mV to +10 mV were applied for 20 ms and repeated 10 times at a frequency of 10 Hz. In all experiments, the test pulse protocol was performed in the absence (pre-read) and presence (post-read) of a compound. Pre- and post-reads were separated by a compound addition followed by a 3-3.5 min incubation.
The intracellular solution contained the following (in mM): K-gluconate 120, KCl 20 mM, MgCl2 5, EGTA 5, HEPES 10, adjusted to pH 7.3. […]

T1 sequence (Q00975 whole entry): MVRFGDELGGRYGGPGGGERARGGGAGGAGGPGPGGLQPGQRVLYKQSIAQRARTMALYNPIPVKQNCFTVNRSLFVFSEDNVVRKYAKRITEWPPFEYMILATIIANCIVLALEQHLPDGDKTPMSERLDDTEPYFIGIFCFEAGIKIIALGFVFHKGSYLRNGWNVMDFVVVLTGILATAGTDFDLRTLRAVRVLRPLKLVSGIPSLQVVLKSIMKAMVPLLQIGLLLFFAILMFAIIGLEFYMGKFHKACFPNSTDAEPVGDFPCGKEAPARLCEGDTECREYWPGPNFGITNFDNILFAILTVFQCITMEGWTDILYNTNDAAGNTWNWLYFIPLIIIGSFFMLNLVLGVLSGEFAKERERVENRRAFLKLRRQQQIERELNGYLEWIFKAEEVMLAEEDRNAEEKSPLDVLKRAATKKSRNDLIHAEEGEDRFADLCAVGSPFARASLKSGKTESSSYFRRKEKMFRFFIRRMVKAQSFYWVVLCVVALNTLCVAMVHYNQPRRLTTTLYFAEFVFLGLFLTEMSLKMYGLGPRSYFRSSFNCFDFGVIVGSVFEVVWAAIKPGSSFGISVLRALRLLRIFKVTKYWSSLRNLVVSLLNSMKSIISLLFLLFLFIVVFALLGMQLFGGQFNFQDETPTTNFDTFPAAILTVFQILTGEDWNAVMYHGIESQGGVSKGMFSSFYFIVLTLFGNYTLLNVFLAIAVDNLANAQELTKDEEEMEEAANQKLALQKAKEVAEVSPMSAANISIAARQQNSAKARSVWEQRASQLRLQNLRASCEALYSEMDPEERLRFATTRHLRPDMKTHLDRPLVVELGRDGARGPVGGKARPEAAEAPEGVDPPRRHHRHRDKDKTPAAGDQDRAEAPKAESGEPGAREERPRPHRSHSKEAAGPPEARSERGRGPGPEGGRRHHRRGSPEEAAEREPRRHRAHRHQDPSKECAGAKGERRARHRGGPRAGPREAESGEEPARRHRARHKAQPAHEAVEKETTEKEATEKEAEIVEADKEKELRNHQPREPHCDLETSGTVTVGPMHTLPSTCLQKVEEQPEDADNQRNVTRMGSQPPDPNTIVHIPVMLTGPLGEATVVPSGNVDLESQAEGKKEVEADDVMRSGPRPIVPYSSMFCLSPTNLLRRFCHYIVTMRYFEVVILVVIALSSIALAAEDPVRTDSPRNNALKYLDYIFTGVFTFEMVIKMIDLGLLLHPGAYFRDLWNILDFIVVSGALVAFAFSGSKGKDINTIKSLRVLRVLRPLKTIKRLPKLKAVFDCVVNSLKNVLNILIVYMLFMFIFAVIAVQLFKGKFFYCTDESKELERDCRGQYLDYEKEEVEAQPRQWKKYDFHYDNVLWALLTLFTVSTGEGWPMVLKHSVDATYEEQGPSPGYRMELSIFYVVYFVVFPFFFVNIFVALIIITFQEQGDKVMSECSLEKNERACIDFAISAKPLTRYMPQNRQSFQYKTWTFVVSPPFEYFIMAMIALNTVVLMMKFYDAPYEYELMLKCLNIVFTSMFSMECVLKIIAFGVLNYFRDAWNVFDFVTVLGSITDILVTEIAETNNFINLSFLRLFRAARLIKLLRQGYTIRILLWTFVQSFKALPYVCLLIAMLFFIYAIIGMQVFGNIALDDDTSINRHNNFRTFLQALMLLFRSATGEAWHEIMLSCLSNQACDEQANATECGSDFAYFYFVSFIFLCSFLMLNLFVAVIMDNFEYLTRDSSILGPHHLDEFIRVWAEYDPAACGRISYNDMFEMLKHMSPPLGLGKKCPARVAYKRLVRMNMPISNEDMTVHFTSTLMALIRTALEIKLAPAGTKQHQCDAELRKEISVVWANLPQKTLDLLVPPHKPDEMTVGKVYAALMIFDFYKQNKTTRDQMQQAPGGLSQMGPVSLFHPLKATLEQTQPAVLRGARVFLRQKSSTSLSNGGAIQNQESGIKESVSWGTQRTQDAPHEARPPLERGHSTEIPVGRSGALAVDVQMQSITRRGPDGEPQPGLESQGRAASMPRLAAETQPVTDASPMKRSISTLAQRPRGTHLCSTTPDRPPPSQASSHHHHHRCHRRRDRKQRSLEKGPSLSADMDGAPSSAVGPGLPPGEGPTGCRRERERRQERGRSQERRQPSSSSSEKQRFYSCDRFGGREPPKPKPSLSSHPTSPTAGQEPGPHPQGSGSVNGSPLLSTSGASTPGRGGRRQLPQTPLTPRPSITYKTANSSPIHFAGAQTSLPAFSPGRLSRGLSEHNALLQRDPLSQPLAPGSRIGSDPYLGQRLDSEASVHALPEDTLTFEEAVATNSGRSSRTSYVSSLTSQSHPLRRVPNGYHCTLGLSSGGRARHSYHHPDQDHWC

Row | SMILES | IC50
1 | Cc1ncccc1C(=O)N1CCN(S(=O)(=O)c2ccc(OC(F)(F)F)cc2)C[C@H]1C [Example 58, (2R)-2-methyl-1-[(2-methyl-3-pyridinyl)carbonyl]-4-({4-[(trifluoromethyl)oxy]phenyl}sulfonyl)piperazine] | ≥ 31.6 µM
2 | Cc1ccc(C(F)(F)F)cc1S(=O)(=O)N1CCN(C(=O)c2cccnc2C)[C@@H](C)C1 [Example 60, (2S)-2-methyl-1-[(2-methyl-3-pyridinyl)carbonyl]-4-{[2-methyl-5-(trifluoromethyl)phenyl]sulfon-yl}piperazine] | ≥ 10 µM
3 | Cc1ccc(C(=O)N2CCN(S(=O)(=O)c3ccc(C#N)cc3C)C[C@@H]2C)c(C)n1 [Example 67, 4-({(3S)-4-[(2,6-dimethyl-3-pyridinyl)carbonyl]-3-methyl-1-piperazinyl}sulfonyl)-3-methylbenzonitrile] | ≥ 31.6 µM
4 | O=C(c1ccc(NC2CCOCC2)nc1)N1CCN(S(=O)(=O)c2ccc(C(F)(F)F)cc2)CC1 [Example 70, N-(tetrahydro-2H-pyran-4-yl)-5-[(4-{[4-(trifluoromethyl)phenyl]sulfon-yl}-1-piperazinyl)carbonyl]-2-pyridinamine] | ≥ 31.6 µM
5 | Cc1ccc(C(=O)N2CCN(S(=O)(=O)c3ccc(C(F)(F)F)cc3)C[C@@H]2C)cn1 [Example 1, (2S)-2-Methyl-1-[(6-methyl-3-pyridinyl)carbonyl]-4-{[4-(trifluoromethyl)phenyl]sulfonyl}piperazine] | ≥ 31.6 µM

Next, values leading:

Row | IC50 | SMILES
6 | ≥ 31.6 µM | COc1ncccc1C(=O)N1CCN(S(=O)(=O)c2ccc(C(F)(F)F)cc2)C[C@@H]1C [Example 15, (2S)-2-Methyl-1-{[2-(methyloxy)-3-pyridinyl]carbonyl}-4-{[4-(trifluoromethyl)phenyl]sulfonyl}piperazine]
7 | ≥ 31.6 µM | Cc1ncccc1C(=O)N1CCN(S(=O)(=O)c2ccc(C(F)(F)F)cc2)[C@H](C)C1 [Example 10, (2R)-2-Methyl-4-[(2-methyl-3-pyridinyl)carbonyl]-1-{[4-(trifluoromethyl)phenyl]sulfonyl}piperazine formic acid salt]
8 | ≥ 31.6 µM | Cc1ncccc1C(=O)N1CCN(S(=O)(=O)c2ccc(C(F)(F)F)cc2)[C@@H](C)C1 [Example 12, (2S)-2-Methyl-4-[(2-methyl-3-pyridinyl)carbonyl]-1-{[4-(trifluoromethyl)phenyl]sulfonyl}piperazine formic acid salt]
